Experimental data as given in patent US20040096356A1, “Assay device for determining analytes in a liquid dairy product” (priority 1997, published 2004).

Target: T1, enzyme R39 (soluble exocellular D-alanyl-D-alanine carboxypeptidase produced by Actinomadura R39) (Actinomadura sp., UniProt P39045)
T1 construct: soluble exocellular D-alanyl-D-alanine carboxypeptidase produced by Actinomadura R39, obtained by the procedure described in J.-M. Frere et al; made in house; host or cells: Actinomadura R39 (natural producer, secreted enzyme)
T1 sequence (P39045 50-515): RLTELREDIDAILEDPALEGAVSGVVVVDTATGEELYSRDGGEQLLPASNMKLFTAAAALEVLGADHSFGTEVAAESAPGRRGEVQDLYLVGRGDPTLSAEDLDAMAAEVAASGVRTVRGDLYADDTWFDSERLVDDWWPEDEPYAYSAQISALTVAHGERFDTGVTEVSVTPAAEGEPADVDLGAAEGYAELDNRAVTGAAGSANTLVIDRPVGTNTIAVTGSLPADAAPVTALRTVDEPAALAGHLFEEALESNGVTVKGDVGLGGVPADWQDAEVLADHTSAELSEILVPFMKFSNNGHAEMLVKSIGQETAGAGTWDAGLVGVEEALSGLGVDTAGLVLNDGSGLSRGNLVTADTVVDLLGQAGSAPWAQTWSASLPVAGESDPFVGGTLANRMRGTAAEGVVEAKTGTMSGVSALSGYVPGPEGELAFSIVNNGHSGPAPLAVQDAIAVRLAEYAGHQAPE
Experiment: Test 2, sensitive test (7 minutes): strip test for β-lactam antibiotics in milk using enzyme R39
Assay type: binding
Conditions: for Intensity 1st band: scale 0 to 10, reference band 6, 47° C., 5 min incubation + 2 min migration
Method: The identifier used in this example is soluble exocellular D-alanyl-D-alanine carboxypeptidase produced by Actinomadura R39, obtained by the procedure described in J.-M. Frere et al., Antimicrobial Agents and Chemotherapy, 18(4), 506-510 (1980).
250 μl of an aqueous solution of enzyme R39 having a concentration of 1 mg/ml are dialysed for 24 hours against 500 ml of HNM buffer (Hepes 10 mM, pH 8, NaCl 10 mM, MgCl2 5 mM). To this dialysed solution of enzyme R39 are then added 2 ml of bicarbonate buffer (0.1 M sodium bicarbonate, pH 9) and 250 μl of a solution of N-hydroxysuccinimide 6-(biotinamido)caproic ester having a concentration of 5 mg/ml in anhydrous DMF. This solution is stirred gently in the LABINCO stirrer for tubes on a rotary axis (available from VEL, Belgium) at a rate of 2 revolutions/minute for 3 hours at room temperature and away from light. The solution thus obtained is dialysed against the HNM buffer ([…]) for 24 hours. In this way a solution of biotinylated enzyme R39 is obtained which is diluted in HNM-BSA buffer (Hepes 500 mM; pH 8, NaCl 500 mM, MgCl2 250 mM, BSA 10 mg/ml) to a concentration of 100 μg of enzyme R39 per ml of buffer. This solution is stored at −20° C.
As the marker use is made of particles of gold having a diameter of 40 nm on which a goat anti-biotin antibody has been deposited in the form of suspensions in a 2 mM aqueous sodium tetraborate solution, with a pH of 7.2, stabilized by 0.1% of sodium azide (available from British Biocell (Ref. GAB40)). The optical density of these suspensions at 520 nm is approximately 10 and the protein concentration is approximately 24 μg/ml.
The biotinylated enzyme R39 solution prepared in Example 2.2.1 is diluted 50 times with the HNM-BSA buffer (Hepes 500 mM, pH 8, NaCl 500 mM, MgCl2 250 mM, BSA 10 mg/ml). At room temperature, 17.5 parts by volume of this dilute biotinylated enzyme R39 solution, 9.27 parts by volume of the gold particle suspension used to label the enzyme R39 and 6 parts by volume of reference gold particle suspension are mixed (see Example 2.3).
The first capture substance makes it possible to fix the identifiers coupled with the free markers present in excess relative to the quantity of antibiotic present in the sample.
Assay devices containing membranes (2), (3) and (4) are used, assembled in accordance with the procedure described in Example 1.1. The membrane (3) of these devices carries on the proximal side the capture substance described in Example 2.4.1. and on the distal side the capture substance described in Example 2.4.2. The capture substances were deposited in accordance with the procedure described in Example 1.2.
Six samples of milk are prepared, containing 0; 2; 2.5; 3; 4 and 5 ppb, respectively, of penicillin G. Each of these solutions is then analysed as follows.
An aliquot is taken of 200 μl of milk sample and 32.8 μl of solution B prepared in Example 2.2.3, and is placed in an Eppendorf tube. This mixture is incubated at 47° C. for 5 minutes. An assay device is then placed vertically in the Eppendorf tube such that the first end of the assay device is in contact with the mixture. The mixture is allowed to migrate over the assay device while the assembly is incubated at 47° C. for 2 minutes.
An intensity value ranging from 0 to 10 is awarded to the bands detected, the value 10 being given to the most intense band and the value 0 being given to the least intense band. On this scale, a value 6 is awarded to the reference band. The intensity of the signal observed in the first detection band is inversely proportional to the quantity of penicillin G present in the sample.
In this example, the test is considered to be positive when the first band has an intensity which is lower than that of the reference band. The results shown in Table 2 indicate that this test makes it possible to detect in 7 minutes down to 2.5 ppb of penicillin G in a milk sample.

CC1(C)S[C@@H]2[C@H](NC(=O)Cc3ccccc3)C(=O)N2[C@H]1C(=O)O [Penicillin G, penicillin G]
Intensity 1st band (2 ppb penicillin G in milk): 7
Intensity 1st band (2.5 ppb penicillin G in milk): 5
Intensity 1st band (3 ppb penicillin G in milk): 4
Intensity 1st band (4 ppb penicillin G in milk): 1
Intensity 1st band (5 ppb penicillin G in milk): 0
lowest concentration detected in a milk sample (in 7 minutes, positive when first band is less intense than reference band): 2.5 ppb
